Experimental data as given in paper PMC9921896 (Molecules, 2023).

Key:
Test in all cases: Single concentration Kobs assay (time-dependent inhibition) in HLM
Type in all cases: biochemical
CYP2C8 = target: T1, CYP2C8 (Homo sapiens, UniProt P10632); conditions: for Kobs 2C8: HLM, 0.02 min^−1 indicates TD inhibition potential; for Kobs 2C8 / inhibition at 30 min: single concentration; for Single concentration Kobs assay (risk bin) 2C8: TD inhibition class from Kobs vs 0.02 min^−1 (Table 5 traffic lights); for inhibition at 30 min: human, human liver microsomes, significant if >50%, read-out: 2C8 R_Inh% (reversible inhibition)
T1 construct: Using HLM as the enzyme source; from tissue; host or cells: human liver microsomes
T1 sequence (P10632 1-490): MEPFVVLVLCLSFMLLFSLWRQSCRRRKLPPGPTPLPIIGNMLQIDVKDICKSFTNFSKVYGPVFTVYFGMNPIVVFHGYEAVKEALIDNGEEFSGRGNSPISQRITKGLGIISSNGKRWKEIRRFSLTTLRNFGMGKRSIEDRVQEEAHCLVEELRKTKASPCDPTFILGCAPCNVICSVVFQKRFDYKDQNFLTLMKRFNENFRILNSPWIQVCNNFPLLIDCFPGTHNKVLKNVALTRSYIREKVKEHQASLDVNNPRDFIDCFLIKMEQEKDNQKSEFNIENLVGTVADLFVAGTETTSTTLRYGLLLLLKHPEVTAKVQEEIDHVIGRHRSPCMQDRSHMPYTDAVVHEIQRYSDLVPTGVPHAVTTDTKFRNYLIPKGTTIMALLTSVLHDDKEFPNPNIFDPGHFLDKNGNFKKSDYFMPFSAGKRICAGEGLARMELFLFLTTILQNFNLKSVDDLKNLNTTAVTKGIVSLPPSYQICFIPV
Excerpt: (§1) CYP inhibition evaluation is typically performed by either IC50 at single-point or IC50 Shift or abbreviated assay such as the first-order inactivity rate constant (K obs ) at single concentration.
(§2) This method yielded good correlations between the percent inhibition at 10 or 25 μ M and kinact/KI. Evaluation of TD inhibition at single concentration has been implemented in several drug discovery programs. […] Therefore, in this study, a single K obs approach has been utilized to understand the TD inhibition potential of TbB ligands. Ideally, the inhibition of CYPs can be reversible or irreversible. The data obtained from single-concentration K obs studies were analyzed to understand the same. From the data presented in Table 4, the TbB ligands have values less than 50% for reversible inhibition (R_Inh). As the qualified % reversible inhibition is considered significant if >50%, no significant reversible inhibition is observed for TbB ligands. Knowledge about enzyme inactivation half-life (E½) is also equally important as it would provide insight into the TD inhibition of a compound. E½ can be used to bin the compounds as positive or negative TD inhibitors if the values are <28 or >28, respectively. The TbB ligand 223-2 is observed to be a weak positive TD inhibitor of 1A2 and is negative TD inhibitor to the other six CYP isoforms.
(§3) The time-dependent inhibition (TDI) potential of test compounds against CYP1A2, 2B6, 2C8, 2C9, 2C19, 2D6, 3A4/5 isoforms were determined using Human liver microsomes. Assay is performed in 96-deep well plate format (n = 1). Positive controls and DMSO as negative control in each assay. To obtain 100 μ M working stock solution, 1 μ L of blank DMSO/test/reference compounds to 100 μ L 1× DPBS buffer was added and labeled as dilution plate. To the primary incubation plate, 45 μ L of primary mix was dispensed to the desired wells containing 25 μ L HLM, 10 μ L MgCl2, and 10 μ L of NADPH working solutions. To the secondary incubation plate, 95 μ L of secondary mix was dispensed to the desired wells containing 20 μ L MgCl2, 20 μ L NADPH, 10 μ L respective substrates for CYP isoform working solutions and 45 μ L 1× DPBS buffer. Each of these four plates were labeled with their respective time points, i.e., 0, 6, 16, 32 min. Pre-incubated the dilution plate along with primary incubation plate at 37 °C for 15 min at 450 rpm. The reaction was carried out in triplicate. After the incubation, the reaction was quenched by adding 150 μ L ice cold stop solution to all the wells followed by centrifuging the samples at 4000 rpm, 4 °C for 15 min. The supernatant samples were then transferred into vials for LC-MS/MS analysis. The percent Reversible Inhibition was calculated using the following formula. %Reversibleinhibition=100−(PARtestcompt0×100)/(PARaverageDMSOt0)

CYP2D6 = target: T2, CYP2D6 (Homo sapiens, UniProt P10635); conditions: for Kobs 2D6: HLM, 0.02 min^−1 indicates TD inhibition potential; for Kobs 2D6 / inhibition at 30 min: single concentration; for Single concentration Kobs assay (risk bin) 2D6: TD inhibition class from Kobs vs 0.02 min^−1 (Table 5 traffic lights); for inhibition at 30 min: human, human liver microsomes, significant if >50%, read-out: 2D6 R_Inh% (reversible inhibition)
T2 construct: Using HLM as the enzyme source; from tissue; host or cells: human liver microsomes
Excerpt: as §1, §2, §3

CYP2B6 = target: T3, CYP2B6 (Homo sapiens, UniProt P20813); conditions: for Kobs 2B6: HLM, single concentration, 0.02 min^−1 indicates TD inhibition potential; for Single concentration Kobs assay (risk bin) 2B6: TD inhibition class from Kobs vs 0.02 min^−1 (Table 5 traffic lights)
T3 construct: Using HLM as the enzyme source; from tissue; host or cells: human liver microsomes
T3 sequence (P20813 1-491): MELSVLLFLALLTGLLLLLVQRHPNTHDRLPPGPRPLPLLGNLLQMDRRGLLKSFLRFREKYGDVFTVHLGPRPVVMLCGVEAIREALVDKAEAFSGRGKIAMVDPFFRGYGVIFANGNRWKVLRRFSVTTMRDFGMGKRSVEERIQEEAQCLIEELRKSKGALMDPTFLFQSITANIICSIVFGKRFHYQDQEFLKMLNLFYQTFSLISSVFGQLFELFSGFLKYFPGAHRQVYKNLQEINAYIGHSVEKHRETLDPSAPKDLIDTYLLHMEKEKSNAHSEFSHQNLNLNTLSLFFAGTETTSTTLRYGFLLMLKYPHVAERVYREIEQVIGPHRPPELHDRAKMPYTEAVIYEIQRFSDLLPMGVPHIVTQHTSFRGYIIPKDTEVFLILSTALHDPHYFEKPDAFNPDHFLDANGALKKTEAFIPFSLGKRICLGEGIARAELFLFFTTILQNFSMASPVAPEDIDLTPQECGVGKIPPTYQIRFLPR
Excerpt: as §1, §2, §3

T2 sequence (P10635 whole entry): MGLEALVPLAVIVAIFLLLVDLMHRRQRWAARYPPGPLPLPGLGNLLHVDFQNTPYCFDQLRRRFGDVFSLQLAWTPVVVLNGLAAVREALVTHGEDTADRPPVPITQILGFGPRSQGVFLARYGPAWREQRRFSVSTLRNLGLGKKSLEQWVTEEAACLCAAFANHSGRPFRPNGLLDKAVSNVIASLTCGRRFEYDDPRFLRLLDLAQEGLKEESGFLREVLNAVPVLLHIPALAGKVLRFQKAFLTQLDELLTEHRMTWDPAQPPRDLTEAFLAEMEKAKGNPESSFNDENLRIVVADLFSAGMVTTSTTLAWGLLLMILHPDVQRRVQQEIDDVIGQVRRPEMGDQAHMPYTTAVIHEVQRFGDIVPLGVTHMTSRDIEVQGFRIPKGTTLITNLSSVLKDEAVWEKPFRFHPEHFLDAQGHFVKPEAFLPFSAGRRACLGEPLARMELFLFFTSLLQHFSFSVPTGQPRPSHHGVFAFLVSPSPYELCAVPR

| Kobs 2C8 (CYP2C8) [min⁻¹] | Single concentration Kobs assay (risk bin) 2C8 (CYP2C8) | inhibition at 30 min (CYP2C8) [%] | Kobs 2D6 (CYP2D6) [min⁻¹] | Single concentration Kobs assay (risk bin) 2D6 (CYP2D6) | inhibition at 30 min (CYP2D6) [%] | Kobs 2B6 (CYP2B6) [min⁻¹] | Single concentration Kobs assay (risk bin) 2B6 (CYP2B6) | Kobs 2B6 (CYP2B6; listed as 223-02) [min⁻¹] | Structure (SMILES) |
| --- | --- | --- | --- | --- | --- | --- | --- | --- | --- |
| 0.02943 | positive inhibitor | < 50 | 0.01109 | weak positive inhibitor | < 50 | 0.02027 | weak positive inhibitor |  | Cc1cc(-c2nnn(-c3cc(C)c(O)c(C)c3)n2)cc(C)c1O [223-3] |
| 0.01585 | weak positive inhibitor | < 50 | 0.009064 | negative inhibitor | < 50 | 0.01121 | weak positive inhibitor |  | Oc1ccc(-c2nnn(-c3ccc(O)cc3)n2)cc1 [223-10] |
| 0.004276 | negative inhibitor | < 50 | 1.479e-10 | negative inhibitor | < 50 | 0.0147 | weak positive inhibitor | 0.01472 | COc1cc(-c2nnn(-c3cc(OC)c(O)c(OC)c3)n2)cc(OC)c1O [223-2] |
